Earlier results, collected in patent US12311052B2, “Mitochondrial performance enhancement nanoemulsion method” (Quicksilver Scientific, Inc., priority 2017, dated 2025).
Where two headings read alike, the source gives them in different places. Blank lines part the entries; values can stand above or below the compound they belong to.

Legend:
Hepa1-6 mouse cells = details: 10-30 μM PQQ for 24-48 hours
cells = details: inhibitors rotenone, 3-nitropropionic acid, antimycin A, sodium azide
mice = details: PQQ deficient mice compared to PQQ supplemented mice
[1] = oral administration; extensively metabolized to glucuronide conjugate by liver and intestine
[2] = consumed orally

Compound: O=C(O)c1cc(C(=O)O)c2c(n1)C(=O)C(=O)c1cc(C(=O)O)[nH]c1-2.[Na].[Na] [PQQ, Pyrroloquinoline quinone disodium salt]
citrate synthase and cytochrome c oxidase activity, Mitotracker staining, mitochondrial DNA content, cellular oxygen respiration (Hepa1-6 mouse cells): increased citrate synthase and cytochrome c oxidase activity, Mitotracker staining, mitochondrial DNA content, and cellular oxygen respiration
protection of cells from mitochondrial inhibition (cells): protect cells from mitochondrial inhibition
reduction in the relative amount of mitochondria in the liver (mice): 20 to 30%

bioavailability [1]: about 0.5%
Compound: Oc1ccc(/C=C/c2cc(O)cc(O)c2)cc1 [resveratrol, 3,5,4′-trihydroxy-trans-stilbene]

bioavailability [2]: ~10%
Compound: COC1=C(OC)C(=O)C(C/C=C(\C)CC/C=C(\C)CC/C=C(\C)CC/C=C(\C)CC/C=C(\C)CC/C=C(\C)CC/C=C(\C)CC/C=C(\C)CC/C=C(\C)CCC=C(C)C)=C(C)C1=O [CoQ10, Coenzyme Q10]
